According to US20100075852A1, “HERBICIDE COMBINATION COMPRISING DIMETHOXYTRIAZINYL-SUBSTITUTED DIFLUOROMETHANESULFONYLANILIDES” (BAYER CROPSCIENCE AG, priority 2008, published 2010):

How the values were obtained:
Assay in all cases: Post-emergence action against weeds, greenhouse pot test, visual scoring
Format in all cases: in vivo
[1] = tested on: Avena fatua (AVEFA); conditions: AVEFA, 21 DAT
Description: (§1) Seeds or rhizome pieces of mono- and dicotyledonous harmful and useful plants were placed in peat pots (diameter 4 cm) filled with sandy loam and then covered with soil. The pots were kept in a greenhouse under optimum conditions. In addition, harmful plants encountered in paddy rice cultivation were cultivated in pots with a water level 2 cm above the soil surface.
(§2) About three weeks after the start of the cultivation, the test plants were treated at the 2- to 3-leaf stage. The herbicides, formulated as powder or liquid concentrates, were, either alone or in the combinations according to the invention, sprayed in various dosages on to the green parts of the plants using an application rate of 600 l of water/ha (converted). For further cultivation of the plants, the pots were then again kept under optimum conditions in a greenhouse.
(§3) The visual scoring of the herbicidal effects was carried out in intervals up to 21 days after the treatment. Scoring was carried out in percent in comparison to the untreated control plants. 0%=no herbicidal activity, 100%=complete herbicidal activity=complete kill.
(§4) The percentages from the treatments with the herbicides alone (=individual application) and with the combinations according to the invention (=mixtures) were employed to calculate interactions using the method of Colby.
(§5) • A, B=activity of components A and B in percent at a dosage of a and b g of ai/ha (=gramm of active substance per hectare), respectively. • E=expected value in % at a dosage of a+b g of ai/ha.

[2] = tested on: Veronica persica (VERPE); conditions: 21 DAT
Description: as §1, §2, §3, §4, §5

[3] = tested on: Lolium multiflorum (LOLMU); conditions: LOLMU, 10 DAT
Description: as §1, §2, §3, §4, §5

[4] = tested on: Fallopia (ex Polygonum) convolvulus (POLCO); conditions: POLCO, 21 DAT
Description: as §1, §2, §3, §4, §5

[5] = tested on: Viola tricolor (VIOTR); conditions: rate (6) B7-4 40
Description: as §1, §2, §3, §4, §5

[6] = tested on: Triticum aestivum (TRZAS)
Description: as §1, §2, §3, §4, §5

[7] = tested on: Stellaria media (STEME); conditions: 10 DAT
Description: as §1, §2, §3, §4, §5

[8] = tested on: Pharbitis purpurea (PHBPU); conditions: 21 DAT
Description: as §1, §2, §3, §4, §5

[9] = tested on: Zea mays (ZEAMX); conditions: ZEAMX
Description: as §1, §2, §3, §4, §5

[10] = tested on: Matricaria inodora (MATIN); conditions: MATIN, 21 DAT
Description: as §1, §2, §3, §4, §5

[11] = tested on: Abuthilon theophrasti (ABUTH); conditions: 21 DAT, rate (6) B7-4 120
Description: as §1, §2, §3, §4, §5

CCN(CC)C(=O)n1cnc(S(=O)(=O)c2c(C)cc(C)cc2C)n1 [B7-4, N,N-diethyl-3-[(2,4,6-trimethylphenyl)sulfonyl]-1H-1,2,4-triazole-1-carboxamide]
(7) activity found ([1]; rate (6) B7-4 40 (Table 78)): 0% | (7) activity found ([1]; rate (6) B7-4 40 (Table 79)): 0% | (7) activity found ([1]; rate (6) B7-4 120): 30% | (7) activity found ([2]; rate (6) B7-4 40): 0% | (7) activity found ([2]; rate (6) B7-4 120): 0% | (7) activity found ([3]; rate (6) B7-4 40): 0% | (7) activity found ([3]; rate (6) B7-4 120): 40% | (7) activity found ([4]; rate (6) B7-4 40 (Table 82)): 30% | (7) activity found ([4]; rate (6) B7-4 40 (Table 83)): 30% | (7) activity found ([4]; rate (6) B7-4 120): 50% | (7) activity found ([5]; 10 DAT): 0% | (7) activity found ([5]; 21 DAT): 0% | (7) activity found ([6]; 10 DAT, rate (6) B7-4 40): 0% | (7) activity found ([6]; 21 DAT, rate (6) B7-4 40): 0% | (7) activity found ([6]; 21 DAT, rate (6) B7-4 120): 0% | (7) activity found ([7]; rate (6) B7-4 40): 10% | (7) activity found ([7]; rate (6) B7-4 120): 10% | (7) activity found ([8]; rate (6) B7-4 40): 20% | (7) activity found ([8]; rate (6) B7-4 120): 20% | (7) activity found ([9]; 10 DAT, rate (6) B7-4 40): 10% | (7) activity found ([9]; 21 DAT, rate (6) B7-4 40): 0% | (7) activity found ([9]; 21 DAT, rate (6) B7-4 120): 0% | (7) activity found ([10]; rate (6) B7-4 40): 0% | (7) activity found ([10]; rate (6) B7-4 120): 0% | (7) activity found [11]: 20%
